# Measurements: article PMC8086025, “A benzopyran with antiarrhythmic activity is an inhibitor of Kir3.1-containing potassium channels” (The Journal of Biological Chemistry, 2021)
# “Also recorded” adds a separate entry of the source.
# Target: Kir3.1(E141A/D173A) (Homo sapiens, UniProt P48544+P48549, D173A/E141A)
# Type: cell-based
# Settings: 1 μM, TEVC
# Chain of Kir3.1(E141A/D173A) (P48549 whole entry E141A/D173A): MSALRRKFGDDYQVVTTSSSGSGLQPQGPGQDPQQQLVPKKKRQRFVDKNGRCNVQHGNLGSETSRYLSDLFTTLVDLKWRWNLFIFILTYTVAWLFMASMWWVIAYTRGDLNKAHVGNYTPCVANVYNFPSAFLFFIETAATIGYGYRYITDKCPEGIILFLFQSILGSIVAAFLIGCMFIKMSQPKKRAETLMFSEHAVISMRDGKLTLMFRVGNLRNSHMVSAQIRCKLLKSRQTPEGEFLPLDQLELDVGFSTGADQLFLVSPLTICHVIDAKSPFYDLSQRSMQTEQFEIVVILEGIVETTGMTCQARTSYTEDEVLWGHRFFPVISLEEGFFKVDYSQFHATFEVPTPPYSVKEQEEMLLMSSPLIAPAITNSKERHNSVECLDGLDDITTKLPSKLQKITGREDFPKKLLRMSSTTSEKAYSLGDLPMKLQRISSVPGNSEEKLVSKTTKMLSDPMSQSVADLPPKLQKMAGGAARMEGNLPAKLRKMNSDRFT
# Chain of Kir3.1(E141A/D173A) (P48544 whole entry): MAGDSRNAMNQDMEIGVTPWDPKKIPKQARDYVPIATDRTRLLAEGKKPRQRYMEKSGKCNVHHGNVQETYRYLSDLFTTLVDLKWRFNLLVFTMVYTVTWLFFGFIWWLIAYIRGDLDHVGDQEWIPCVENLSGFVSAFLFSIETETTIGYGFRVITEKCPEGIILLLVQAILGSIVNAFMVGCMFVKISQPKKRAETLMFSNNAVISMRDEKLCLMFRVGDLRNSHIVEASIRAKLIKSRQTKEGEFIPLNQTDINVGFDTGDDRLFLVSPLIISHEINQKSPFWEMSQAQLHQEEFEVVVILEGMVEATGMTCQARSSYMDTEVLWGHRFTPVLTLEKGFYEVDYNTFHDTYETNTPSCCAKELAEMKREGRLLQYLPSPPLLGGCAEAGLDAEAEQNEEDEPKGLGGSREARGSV
structure (smiles),measurement,value
"Cc1cc(CO)nc2cc3c(cc12)OC(C)(C)[C@H](O)[C@H]3NCCc1ccccc1 [BP-G1, (3R,4S)-7-(hydroxymethyl)-2,2,9-trimethyl-4-(2-phenylethylamino)-3,4-dihydropyrano[2,3-g]quinolin-3-ol]","current block, Kir3.1(E141A/D173A)",abolished any current block; also recorded: abolished the block
